Test results published in patent publication US20250257034A1, “INDOLE DERIVATIVES AS SEROTONERGIC AGENTS USEFUL FOR THE TREATMENT OF DISORDERS RELATED THERETO” (priority 2023, published 2025).
Several values for one entry are separate records, joined by “and”; a condition that tells them apart may be missing. Equal entries are not always repeated. Where two headings read alike, the source gives them in different places.

Tests used:
[1] = Mouse liver microsomes stability; assay type: in vitro ADME; settings: Mouse liver microsomes; for microsomal CLint at 2 μM / half-life at 2 μM / CLint scaled at 2 μM: male; for microsomal CLint at 2 μM: mouse, liver microsomes, read-out: CLint (μL/min/mg protein); for microsomal CLint at 2 μM / half-life at 2 μM: 2 μM compound, 0.5 mg/mL microsomes, 1 mM NADPH; for half-life at 2 μM: 37° C; for CLint scaled at 2 μM: read-out: Scaled-up CLint
[2] = Pharmacokinetic studies in rat (i.v.); assay type: in vivo; settings: rat plasma; for Apparent t1/2 / half-life: estimated from 2 points only; for concentration at 0.25 h / concentration at 1 h / concentration at 4 h / half-life / AUC(0-t): male, Sprague-Dawley, rat, plasma, iv; for concentration at 0.25 h / concentration at 1 h / concentration at 4 h: read-out: Plasma concentration; for half-life: read-out: Apparent t1/2 (converted); for AUC(0-t): read-out: AUC0-tlast
Experimental: Animals: Male Sprague-Dawley rats (˜225-350 g) from Charles River Labs were acclimatized for a minimum of 5 days prior to start of study procedures. Body weights were recorded on the day of dosing.
Any abnormalities were documented including presence/absence of wet dog shakes/back muscle contractions (WDS/BMC).
Dosing: Formulations were administered intravenously (i.v.) via the tail vein using a 25 G needle connected to a 1 cc syringe.
The Compounds of Formula (I) were freshly prepared at the appropriate concentrations in 5% Tween-80 in saline.
Blood collection time (h): 0.25, 1 and 4.
Volume/time-point: ˜0.25 mL […] (saphenous vein).
Instrumentation: AB Sciex QTRAP 4000 or 6500 MS/MS system equipped with an LC system with a binary pump, a solvent degasser, a thermostatted column compartment and a multiplate autosampler.
Analysis software: Phoenix® WinNonlin® 8.3 (Pharsight, Certara, Mountainview, CA).
Analysis methods: non-compartmental analysis, linear up/log down trapezoidal rule.
PK parameters: t1/2 and AUC0-tlast were be estimated.
Volume/time-point: ˜0.25 mL (saphenous vein).
PK parameters: t1/2 and AUC0-tlast were estimated.

[3] = Rat liver microsomes stability; assay type: in vitro ADME; settings: Rat liver microsomes; for microsomal CLint at 2 μM / half-life at 2 μM / CLint scaled at 2 μM: male; for microsomal CLint at 2 μM: rat, liver microsomes, read-out: CLint (μL/min/mg protein); for microsomal CLint at 2 μM / half-life at 2 μM: 2 μM compound, 0.5 mg/mL microsomes, 1 mM NADPH; for half-life at 2 μM: 37° C; for CLint scaled at 2 μM: read-out: Scaled-up CLint
Summary of the method: (§1)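 Parent depletion was measured by LC-MS/MS as peak-area ratio to internal standard. Compounds (2 μM) were incubated at 37° C with liver microsomes of each species and 1 mM NADPH, then sampled to 60 min. Intrinsic clearance in μL/min/mg protein derives from the log-linear slope.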

[4] = Human liver microsomes stability; assay type: in vitro ADME; settings: Human liver microsomes; for half-life at 2 μM / microsomal CLint at 2 μM: 2 μM compound, 0.5 mg/mL microsomes, 1 mM NADPH; for half-life at 2 μM: 37° C; for microsomal CLint at 2 μM: read-out: CLint (μL/min/mg protein); for CLint scaled at 2 μM: read-out: Scaled-up CLint
Summary of the method: as §1

[5] = I-17 1.33 mg/kg i.v., individual rats R07-R09, 1.33 mg/kg
[6] = 1.33 mg/kg, I-17 1.33 mg/kg i.v., Mean ± SD
[7] = 1.33 mg/kg, I-17 1.33 mg/kg i.v., individual rats R07-R09
[8] = I-19 1.2 mg/kg i.v., individual rats R07-R09, 1.2 mg/kg
[9] = 1.2 mg/kg, I-19 1.2 mg/kg i.v., individual rats R07-R09

## CSc1ccc2[nH]cc(CCN(C(C)C)C(C)C)c2c1 [Compound I-17, N-Isopropyl-N-(2-(5-(methylthio)-1H-indol-3-yl)ethyl)propan-2-amine]
[1]
  Predicted hepatic CL: >84.35 mL/min/kg
  microsomal CLint at 2 μM: > 307 µL/min/mg
  half-life at 2 μM: < 4.51 min
  CLint scaled at 2 μM: > 1340 mL/min/kg
[2]; I-17 1.33 mg/kg i.v., 0.25 h, individual rats R07-R09, 1.33 mg/kg
  Plasma concentration: 197 ng/mL and 259 ng/mL
[2]; I-17 1.33 mg/kg i.v., 1 h, individual rats R07-R09, 1.33 mg/kg
  Plasma concentration: 89.3 ng/mL and 120 ng/mL
[2]; I-17 1.33 mg/kg i.v., 4 h, individual rats R07-R09, 1.33 mg/kg
  Plasma concentration: 17.7 ng/mL and 15.6 ng/mL
[2]; [5]
  AUC0-tlast: 363 ng·h/mL
  Apparent t1/2: 67.8 min and 57 min
[2]; 1.33 mg/kg, I-17 1.33 mg/kg i.v., 0.25 h, Mean ± SD
  concentration at 0.25 h: 198 ± 60 ng/mL
[2]; 1.33 mg/kg, I-17 1.33 mg/kg i.v., 0.25 h, individual rats R07-R09
  concentration at 0.25 h: 139 ng/mL
[2]; 1.33 mg/kg, I-17 1.33 mg/kg i.v., 1 h, Mean ± SD
  concentration at 1 h: 103 ± 15.5 ng/mL
[2]; 1.33 mg/kg, I-17 1.33 mg/kg i.v., 1 h, individual rats R07-R09
  concentration at 1 h: 101 ng/mL
[2]; 1.33 mg/kg, I-17 1.33 mg/kg i.v., 4 h, Mean ± SD
  concentration at 4 h: 19.7 ± 5.39 ng/mL
[2]; 1.33 mg/kg, I-17 1.33 mg/kg i.v., 4 h, individual rats R07-R09
  concentration at 4 h: 25.8 ng/mL
[2]; [6]
  half-life: 72.6 ± 18.1 min
  AUC(0-t): 315 ± 41.4 ng·h/mL
[2]; [7]
  half-life: 92.4 min
  AUC(0-t): 291 ng·h/mL
[3]
  Predicted hepatic CL: 30.01 mL/min/kg
  microsomal CLint at 2 μM: 36.7 µL/min/mg
  half-life at 2 μM: 37.8 min
  CLint scaled at 2 μM: 65.8 mL/min/kg
[4]
  Predicted hepatic CL: 19.11 mL/min/kg
  half-life at 2 μM: 6.99 min
  microsomal CLint at 2 μM: 198 µL/min/mg
  CLint scaled at 2 μM: 249 mL/min/kg

## CSc1ccc2[nH]cc(CCN(C)C(C)C)c2c1 [Compound I-19, N-Methyl-N-(2-(5-(methylthio)-1H-indol-3-yl)ethyl)propan-2-amine]
[1]
  Predicted hepatic CL: 78.36 mL/min/kg
  microsomal CLint at 2 μM: 138 µL/min/mg
  half-life at 2 μM: 10 min
  CLint scaled at 2 μM: 606 mL/min/kg
[2]; I-19 1.2 mg/kg i.v., 0.25 h, individual rats R07-R09, 1.2 mg/kg
  Plasma concentration: 13.4 ng/mL and 70.3 ng/mL and 84.4 ng/mL
[2]; I-19 1.2 mg/kg i.v., 1 h, individual rats R07-R09, 1.2 mg/kg
  Plasma concentration: 34.4 ng/mL and 41.4 ng/mL
[2]; I-19 1.2 mg/kg i.v., 4 h, individual rats R07-R09, 1.2 mg/kg
  Plasma concentration: 4.95 ng/mL and 4.34 ng/mL
[2]; [8]
  AUC0-tlast: 103 ng·h/mL and 118 ng·h/mL
  Apparent t1/2: 53.3 min
[2]; 1.2 mg/kg, I-19 1.2 mg/kg i.v., 0.25 h, Mean ± SD
  concentration at 0.25 h: 56 ± 37.6 ng/mL
[2]; 1.2 mg/kg, I-19 1.2 mg/kg i.v., 1 h, Mean ± SD
  concentration at 1 h: 35.4 ± 5.57 ng/mL
[2]; 1.2 mg/kg, I-19 1.2 mg/kg i.v., 1 h, individual rats R07-R09
  concentration at 1 h: 30.4 ng/mL
[2]; 1.2 mg/kg, I-19 1.2 mg/kg i.v., 4 h, Mean ± SD
  concentration at 4 h: 5.35 ± 1.26 ng/mL
[2]; 1.2 mg/kg, I-19 1.2 mg/kg i.v., 4 h, individual rats R07-R09
  concentration at 4 h: 6.76 ng/mL
[2]; 1.2 mg/kg, I-19 1.2 mg/kg i.v., Mean ± SD
  AUC(0-t): 96.1 ± 26.4 ng·h/mL
[2]; [9]
  half-life: 60 min
  AUC(0-t): 66.9 ng·h/mL
[2]; 1.2 mg/kg, I-19 1.2 mg/kg i.v., mean (n = 2)
  half-life: 56.8 min
[3]
  Predicted hepatic CL: 16.73 mL/min/kg
  microsomal CLint at 2 μM: 13.4 µL/min/mg
  half-life at 2 μM: 103 min
  CLint scaled at 2 μM: 24 mL/min/kg
[4]
  Predicted hepatic CL: 16.93 mL/min/kg
  half-life at 2 μM: 18.7 min
  microsomal CLint at 2 μM: 74.1 µL/min/mg
  CLint scaled at 2 μM: 92.9 mL/min/kg
